inhibition, IC50 and Ratio IC50 data for 24 compounds are collected here from ChEMBL document CHEMBL1955805, “New aromatase inhibitors from the 3-pyridyl arylether and 1-aryl pyrrolo[2,3-c]pyridine series” (Bioorg Med Chem Lett, 2012).

One data set concerns the target T1, aromatase (CYP19) (Homo sapiens, UniProt P11511).
T1 sequence (P11511 whole entry): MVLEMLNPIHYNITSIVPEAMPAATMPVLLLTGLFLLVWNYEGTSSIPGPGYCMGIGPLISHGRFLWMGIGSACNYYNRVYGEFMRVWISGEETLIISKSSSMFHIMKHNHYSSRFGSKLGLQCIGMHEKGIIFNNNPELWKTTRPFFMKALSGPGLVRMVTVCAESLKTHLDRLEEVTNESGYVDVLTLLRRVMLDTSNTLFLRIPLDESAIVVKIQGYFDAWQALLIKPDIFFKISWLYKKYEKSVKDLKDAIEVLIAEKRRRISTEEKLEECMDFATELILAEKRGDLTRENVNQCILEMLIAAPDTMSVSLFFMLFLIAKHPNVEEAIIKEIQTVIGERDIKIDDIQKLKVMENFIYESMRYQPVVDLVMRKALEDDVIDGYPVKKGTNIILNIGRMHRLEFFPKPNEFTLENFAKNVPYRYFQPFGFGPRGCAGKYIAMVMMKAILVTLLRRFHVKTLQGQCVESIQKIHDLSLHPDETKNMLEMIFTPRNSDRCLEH
As to the kind of experiment: Inhibition of human aromatase coexpressed with P450 reductase at 1 uM by fluorimetry. The following applies: recombinant human aromatase coexpressed with P450 reductase.

The target of the next data set is T2, Aromatase (Homo sapiens, UniProt P11511).
T2 sequence (P11511 whole entry): T1 sequence (P11511 whole entry)
Kind of data set: Inhibition of human aromatase coexpressed with P450 reductase by fluorimetry.

Data set [1] is filed under the species Homo sapiens. As to the kind of experiment: Selectivity ratio of IC50 for CYP2D6 to IC50 for human aromatase.
Data set [2] is filed under the species Homo sapiens. As to the kind of experiment: Selectivity ratio of IC50 for CYP3A4 to IC50 for human aromatase.
Data set [3] is filed under the species Homo sapiens. Kind of data set: Selectivity ratio of IC50 for CYP2C9 to IC50 for human aromatase.

As a reminder, the inhibition is the percentage by which the read-out fell short of the control. On to `N#Cc1ccc(Oc2cccnc2)c(Oc2cccnc2)c1`, for which the inhibition at 1 µM at aromatase (CYP19) was 82%.
Usually IC50 stands for the concentration at which inhibition is half-maximal. Read a high IC50 as a need for much substance. At Aromatase, `N#Cc1ccc(Oc2cccnc2)cc1Oc1cccnc1` displayed a half-inhibitory concentration (IC50) of 304 nM. On aromatase (CYP19), the inhibition at 1 µM worked out at 81%.
In the case of `N#Cc1ccc(Oc2cccnc2)cc1NC1CCCCC1`, the inhibition at 1 µM on aromatase (CYP19) is 33%.
In the case of `N#Cc1ccc(Oc2ccncc2)cc1`, the inhibition at 1 µM on aromatase (CYP19) is 53%.
At Aromatase, `N#Cc1ccc(Oc2cccnc2)cc1C#N` displayed an IC50 of 5030 nM. At aromatase (CYP19), the inhibition at 1 µM turned out to be 27%.
On to `N#Cc1ccc(Oc2cccnc2)cc1NCc1ccccc1`, for which, at Aromatase, the IC50 was 986 nM. Further, the inhibition at 1 µM on aromatase (CYP19) was 58%.
Regarding `N#Cc1ccc(Oc2cccnc2)cc1Oc1cccc(Cl)c1`, at aromatase (CYP19), the inhibition at 1 µM was determined as 25%.
As for `N#Cc1ccc(Oc2cccnc2)cc1F`, the inhibition at 1 µM at aromatase (CYP19) was 15%.
Still for that read-out and setting: the figure for `COc1ccc(Oc2cc(Oc3cccnc3)ccc2C#N)cc1` is 84%.
In the case of `N#Cc1ccc(Cn2cncn2)cc1`, the inhibition at 1 µM on aromatase (CYP19) came to 88%.
For the compound `N#Cc1ccc(Oc2cccnn2)cc1`, the inhibition at 1 µM at aromatase (CYP19) turned out to be 1%.
Turning to `Ic1ccc(-n2ccc3ccncc32)cc1`, the inhibition at 1 µM on aromatase (CYP19) worked out at 26%.
As for `Cc1cc(-n2ccc3ccncc32)ccc1C#N`, the inhibition at 1 µM at aromatase (CYP19) was > 99%.
At Aromatase, `N#Cc1ccc(-n2ccc3ccncc32)cc1Oc1ccccc1` yielded an IC50 of 114 nM. Also, the inhibition at 1 µM on aromatase (CYP19) is 97%.
As for `Clc1ccc(-n2ccc3ccncc32)cc1`, it took 523 nM to reach half-maximal inhibition against Aromatase (IC50). At aromatase (CYP19), the inhibition at 1 µM turned out to be 85%.
As for `N#Cc1ccc(-n2ccc3ccncc32)cc1`, inhibition on Aromatase was half-maximal at 93 nM (IC50). The Ratio IC50 in the data set filed under Homo sapiens [1], in the data set filed under Homo sapiens [2] and in the data set filed under Homo sapiens [3] was > 200 in each case. Also, the inhibition at 1 µM on aromatase (CYP19) was found to be 94%.
In the case of `Brc1ccc(-n2ccc3ccncc32)cc1`, the inhibition at 1 µM on aromatase (CYP19) is 56%.
On Aromatase, `N#Cc1ccc(Oc2cccnc2)c(Oc2cccc(Cl)c2)c1` registered an IC50 of 229 nM. Further, the inhibition at 1 µM on aromatase (CYP19) came to 89%.
Take `N#Cc1ccc(Oc2cccnc2)c(F)c1`: at aromatase (CYP19), the inhibition at 1 µM stood at 52%.
With `CN1CCN(c2cc(Oc3cccnc3)ccc2C#N)CC1`, on aromatase (CYP19), the inhibition at 1 µM stood at 8%.
As to `Cc1cc(-n2ccc3ccncc32)ccc1Cl`, the IC50 on Aromatase turned out to be 59 nM. Moreover, at aromatase (CYP19), the inhibition at 1 µM is 96%.
Turning to `N#Cc1ccc(Oc2cccnc2)cc1Oc1ccccc1`, at aromatase (CYP19), the inhibition at 1 µM is 78%.
Regarding `NC(=O)c1ccc(-n2ccc3ccncc32)cc1`, on aromatase (CYP19), the inhibition at 1 µM turned out to be 60%.
Regarding `N#Cc1ccc(Oc2cccnc2)cc1`, at Aromatase, the IC50 stood at 289 nM. For the same compound, the inhibition at 1 µM at aromatase (CYP19) came to 70%.
